A word on the IC50: it is the concentration needed to halve the response being measured.

The test system of experiment [1] is PKB Ser473 phosphorylation in Rat1-myr-HA-p110 alpha cells. The experiment can be described thus: Reverse protein array assay, PKB Ser473 phosphorylation in Rat1-myr-p110 alpha cells. Format: cell-based. To be noted: 0.5 h, pAkt Ser473, 30 minutes compound incubation, read-out: p-PKB IC50. The gist of the method:
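Compound exposure lasted 30 min in Rat1 cells bearing membrane-targeted HA-p110 isoforms, using 8 serial concentrations. Arrayed lysates, each spotted at four dilutions, gave relative fluorescence signals for phospho-Ser473 PKB.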

A further experiment addresses T1, PI3K beta (Homo sapiens, UniProt P42338).
T1 construct: for the full-length p110-b subunit are generated and fused by overlapping PCR; p85(iSH2) fusion partner (see partner chain) (N); His tag (C); made in house; host or cells: baculovirus; Tn5 (Trichoplusia ni) or TiniPro insect cells
The experiment can be described thus: PI3K beta kinase assay (Kinase-Glo luminescence). The experiment is classed as biochemical. The gist of the method:
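IC50 is derived by four-parameter logistic curve fitting of Kinase-Glo luminescence, which measures ATP left after a 60 min room-temperature reaction. Conditions are 25 nM His-tagged p85(iSH2)-p110β, 1 μM ATP and 10 μg/mL bovine liver phosphatidylinositol.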
A general note: In Kinase-Glo more light means more ATP remaining.

Another experiment deals with T2, mTOR (Homo sapiens, UniProt P42345).
T2 construct: purchased Invitrogen Corporation (Carlsbad/CA, USA) PV4753
The experiment can be described thus: Biochemical assay for m-TOR by TR-FRET. To be noted: 8 μM ATP, 400 nM GFP-4EBP1, 0.5 nM mTOR. The gist of the method:
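Enzyme 0.5 nM, GFP-4EBP1 400 nM, ATP 8 μM (all final); 50 mM HEPES pH 7.5, 10 mM MnCl2, 1 mM DTT; rt. Detection: Tb-α-p4EBP1 [pT46] 0.5 nM in EDTA, TR-FRET, 15 min. Reference compound on every plate, 16-point duplicate dilutions.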

T1 sequence (P42338 with tags, fused parts or gaps limits assumed): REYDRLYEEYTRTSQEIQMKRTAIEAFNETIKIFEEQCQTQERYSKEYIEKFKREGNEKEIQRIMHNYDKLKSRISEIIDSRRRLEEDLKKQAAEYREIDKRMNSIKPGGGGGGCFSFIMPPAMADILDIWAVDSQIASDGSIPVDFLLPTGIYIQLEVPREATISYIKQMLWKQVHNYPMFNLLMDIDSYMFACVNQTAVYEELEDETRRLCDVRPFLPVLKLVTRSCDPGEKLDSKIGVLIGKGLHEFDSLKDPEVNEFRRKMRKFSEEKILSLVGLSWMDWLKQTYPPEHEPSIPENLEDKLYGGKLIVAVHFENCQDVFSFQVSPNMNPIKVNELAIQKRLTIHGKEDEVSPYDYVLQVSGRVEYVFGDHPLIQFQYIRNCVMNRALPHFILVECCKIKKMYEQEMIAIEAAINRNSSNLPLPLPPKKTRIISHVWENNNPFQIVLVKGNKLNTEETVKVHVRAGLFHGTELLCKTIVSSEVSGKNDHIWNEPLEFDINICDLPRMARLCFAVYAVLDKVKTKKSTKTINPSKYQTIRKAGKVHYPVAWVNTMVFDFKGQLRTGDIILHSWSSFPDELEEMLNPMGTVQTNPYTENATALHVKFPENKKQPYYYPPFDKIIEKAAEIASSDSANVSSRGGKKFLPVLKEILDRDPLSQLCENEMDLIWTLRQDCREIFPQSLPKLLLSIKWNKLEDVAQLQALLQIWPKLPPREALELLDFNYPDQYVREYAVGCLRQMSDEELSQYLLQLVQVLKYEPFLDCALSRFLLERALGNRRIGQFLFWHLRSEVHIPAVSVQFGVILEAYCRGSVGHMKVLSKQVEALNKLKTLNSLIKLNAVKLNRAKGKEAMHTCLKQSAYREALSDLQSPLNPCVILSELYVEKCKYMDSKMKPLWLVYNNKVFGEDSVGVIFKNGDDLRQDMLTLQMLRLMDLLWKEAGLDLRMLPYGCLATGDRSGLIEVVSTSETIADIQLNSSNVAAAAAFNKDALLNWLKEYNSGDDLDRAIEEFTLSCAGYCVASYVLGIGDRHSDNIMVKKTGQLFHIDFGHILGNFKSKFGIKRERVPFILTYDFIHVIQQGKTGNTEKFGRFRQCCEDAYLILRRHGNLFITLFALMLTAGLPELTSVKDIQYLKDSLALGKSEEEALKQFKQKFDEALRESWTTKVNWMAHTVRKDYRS
T2 sequence (P42345 1360-2549 limits assumed): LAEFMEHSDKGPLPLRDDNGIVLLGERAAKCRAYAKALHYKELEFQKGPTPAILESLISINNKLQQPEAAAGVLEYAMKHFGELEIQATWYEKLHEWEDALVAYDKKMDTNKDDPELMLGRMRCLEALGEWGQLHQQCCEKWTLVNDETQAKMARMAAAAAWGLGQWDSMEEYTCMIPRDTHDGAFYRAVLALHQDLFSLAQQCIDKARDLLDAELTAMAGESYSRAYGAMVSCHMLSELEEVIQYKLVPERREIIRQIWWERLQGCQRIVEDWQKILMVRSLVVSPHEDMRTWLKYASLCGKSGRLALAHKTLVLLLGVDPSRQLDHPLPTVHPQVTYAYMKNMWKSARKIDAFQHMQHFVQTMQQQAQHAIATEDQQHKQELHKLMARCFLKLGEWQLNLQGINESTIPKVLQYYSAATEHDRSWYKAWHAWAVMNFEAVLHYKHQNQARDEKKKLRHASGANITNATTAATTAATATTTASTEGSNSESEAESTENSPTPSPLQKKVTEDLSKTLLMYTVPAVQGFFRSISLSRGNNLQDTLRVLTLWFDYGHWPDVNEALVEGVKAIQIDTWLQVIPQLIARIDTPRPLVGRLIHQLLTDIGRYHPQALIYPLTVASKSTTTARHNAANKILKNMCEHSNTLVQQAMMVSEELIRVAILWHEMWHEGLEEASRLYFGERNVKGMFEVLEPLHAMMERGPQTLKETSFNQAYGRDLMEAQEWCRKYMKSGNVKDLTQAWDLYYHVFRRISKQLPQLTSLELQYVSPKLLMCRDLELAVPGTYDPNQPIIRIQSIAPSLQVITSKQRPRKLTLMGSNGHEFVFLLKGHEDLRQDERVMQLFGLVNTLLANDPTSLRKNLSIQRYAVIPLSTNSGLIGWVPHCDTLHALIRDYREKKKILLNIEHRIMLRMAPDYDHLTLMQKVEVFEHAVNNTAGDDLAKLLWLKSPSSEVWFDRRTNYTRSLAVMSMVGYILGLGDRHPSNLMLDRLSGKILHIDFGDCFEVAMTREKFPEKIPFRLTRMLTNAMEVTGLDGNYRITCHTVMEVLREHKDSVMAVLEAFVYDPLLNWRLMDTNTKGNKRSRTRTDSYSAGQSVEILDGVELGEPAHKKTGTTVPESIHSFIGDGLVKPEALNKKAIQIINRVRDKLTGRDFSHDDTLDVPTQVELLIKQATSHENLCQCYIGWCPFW

For the compound `CCNC(=O)c1cc(-c2ccc3ncc4c(c3c2)n(-c2cn(C)nc2C)c(=O)n4C)cnc1NC` [Example 242.1, 5-[1-(1,3-Dimethyl-1H-pyrazol-4-yl)-3-methyl-2-oxo-2,3-dihydro-1H-imidazo[4,5-c]quinolin-8-yl]-N-ethyl-2-methylamino-nicotinamide], the results for the IC50 (in experiment [1]; on PI3K beta; on mTOR) were 45 nM, 67 nM and 58 nM, respectively.

For `CCOc1cc(-c2ccc3ncc4c(c3c2)n(-c2cn(C)nc2C)c(=O)n4C)cnc1CO` [Example 243, 1-(1,3-Dimethyl-1H-pyrazol-4-yl)-8-(5-ethoxy-6-hydroxymethyl-pyridin-3-yl)-3-methyl-1,3-dihydro-imidazo[4,5-c]quinolin-2-one], the IC50 in experiment [1] came to 36 nM; on PI3K beta, 47 nM; at mTOR it was 31 nM.

For `COCCOc1cc(-c2ccc3ncc4c(c3c2)n(-c2cn(C)nc2C)c(=O)n4C)cnc1CO` [Example 244, 1-(1,3-Dimethyl-1H-pyrazol-4-yl)-8-[6-hydroxymethyl-5-(2-methoxy-ethoxy)-pyridin-3-yl]-3-methyl-1,3-dihydro-imidazo[4,5-c]quinolin-2-one], the IC50 came to 115 nM in experiment [1], 188 nM at PI3K beta and 79 nM at mTOR.

With `CCn1c(=O)n(-c2cn(C)nc2C)c2c3nc(-c4ccc(OC)c(OC)c4)ccc3ncc21` [Example 251, 8-(3,4-Dimethoxy-phenyl)-1-(1,3-dimethyl-1H-pyrazol-4-yl)-3-ethyl-1,3-dihydro-1,3,5,9-tetraaza-cyclopenta[a]naphthalen-2-one], the IC50 in experiment [1] is 32 nM; on PI3K beta, 504 nM; on mTOR, 105 nM.

`COc1ccc(-c2ccc3ncc4[nH]c(=O)n(-c5cc(C)nn5C)c4c3n2)cc1OC` [Example 252, 8-(3,4-Dimethoxy-phenyl)-1-(2,5-dimethyl-2H-pyrazol-3-yl)-1,3-dihydro-1,3,5,9-tetraaza-cyclopenta[a]naphthalen-2-one]: the IC50 was found to be 12 nM in experiment [1], 24 nM on PI3K beta and 10 nM on mTOR.

On to `COc1ccc(-c2ccc3ncc4c(c3n2)n(-c2cc(C)nn2C)c(=O)n4C)cc1OC` [Example 253, 8-(3,4-Dimethoxy-phenyl)-1-(2,5-dimethyl-2H-pyrazol-3-yl)-3-methyl-1,3-dihydro-1,3,5,9-tetraaza-cyclopenta[a]naphthalen-2-one], for which the results for the IC50 (in experiment [1]; on PI3K beta; at mTOR) were 18 nM, 8 nM and 3 nM, respectively.

The values above are taken from patent publication US20140005163A1 (NOVARTIS AG, priority 2010, published 2014).
